Calls of active or inactive are those of the source. The calls are words filed in the database; no cut-off is given here.
Experiments:
[1] = system: HeLa; assay: Inhibition of beta-tubulin assembly in human HeLa cells assessed as effect on microtubule density up to 40 uM after 18 hrs by immunofluorescence assay; format: cell-based
[2] = system: MDA-MB-435; assay: Cytotoxicity against human MDA-MB-435 cells after 48 hrs by sulforhodamine B assay; format: functional, cell-based; details: MDA-MB-435, 48 h
[3] = system: MDA-MB-231; assay: Cytotoxicity against human MDA-MB-231 cells after 48 hrs by sulforhodamine B assay; format: functional, cell-based; details: MDA-MB-231, 48 h
[4] = system: HeLa; assay: Cytotoxicity against human HeLa cells after 48 hrs by sulforhodamine B assay; format: functional, cell-based
[5] = system: HeLa; assay: Inhibition of beta-tubulin assembly in human HeLa cells assessed as effect on microtubule density at 5 uM after 18 hrs by immunofluorescence assay; format: cell-based
[6] = system: PC-3; assay: Cytotoxicity against human PC3 cells after 48 hrs by sulforhodamine B assay; format: functional, cell-based; details: PC-3, 48 h

Q: For COC1=CC(=O)C(CCC(=O)c2ccc(OC)c(OC)c2)=C(OC)C1=O [EVELYNIN], which inhibition [1] is on record?
A: inactive

Q: And the IC50 [2]?
A: 4.1 µM

Q: What about the IC50 [3] of the same compound?
A: 3.9 µM

Q: What about the IC50 [4] of the same compound?
A: 6.3 µM

Q: What about the inhibition [5] of the same compound?
A: inactive

Q: And the IC50 [6]?
A: 4.7 µM
